Results as given in ChEMBL document CHEMBL1201862, “PubChem BioAssay data set” (2004).
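Step 1: Grow cells in 96-well plates. Step 2: Expose to compound for 48 hours at 5 concentrations. Step 3: Interpolate endpoints linearly; if unreached, use highest concentration. GI50: concentration for 50% inhibition of growth.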 The source made the active and inactive calls. Cut-off read from the data, not from the text of the source: active = GI50 up to about 1.1 µM and inactive = higher.

Experiments:
Experiment in all cases: inhibition of tumour cell growth, NCI panel, 48 h
DMS-114 = system: DMS-114
HCC 2998 = system: HCC 2998
HL-60 = system: HL-60
HOP-92 = system: HOP-92
K562 = system: K562
LXFL 529 = system: LXFL 529
MOLT-4 = system: MOLT-4
NCI-H460 = system: NCI-H460
OVCAR-4 = system: OVCAR-4
SF-539 = system: SF-539
SK-MEL-28 = system: SK-MEL-28
SK-MEL-5 = system: SK-MEL-5
U-251 = system: U-251
UACC-257 = system: UACC-257
UACC-62 = system: UACC-62
UO-31 = system: UO-31
DMS-273 = system: DMS-273
DU-145 = system: DU-145
Hs-578T = system: Hs-578T
MDA-N = system: MDA-N

| SMILES | GI50 (DMS-114) | GI50 (HCC 2998) | GI50 (HL-60) | GI50 (HOP-92) | GI50 (K562) | GI50 (LXFL 529) | GI50 (MOLT-4) | GI50 (NCI-H460) | GI50 (OVCAR-4) | GI50 (SF-539) | GI50 (SK-MEL-28) | GI50 (SK-MEL-5) | GI50 (U-251) | GI50 (UACC-257) | GI50 (UACC-62) | GI50 (UO-31) | GI50 (DMS-273) | GI50 (DU-145) | GI50 (Hs-578T) | GI50 (MDA-N) |
| --- | --- | --- | --- | --- | --- | --- | --- | --- | --- | --- | --- | --- | --- | --- | --- | --- | --- | --- | --- | --- |
| COC(=O)CCC(=O)Nc1cc(Cl)ccc1Cl | > 100 µM (inactive) | > 100 µM (inactive) | > 100 µM (inactive) | > 100 µM (inactive) | > 100 µM (inactive) | > 100 µM (inactive) | > 100 µM (inactive) | > 100 µM (inactive) | > 100 µM (inactive) | > 100 µM (inactive) | > 100 µM (inactive) | > 100 µM (inactive) | > 100 µM (inactive) | > 100 µM (inactive) | > 100 µM (inactive) | > 100 µM (inactive) | – | – | – | – |
| COC(=O)C[C@](O)(CCC(C)(C)O)C(=O)O[C@@H]1C(OC)=C[C@]23CCCN2CCc2cc4c(cc2[C@H]13)OCO4 [HARRINGTONINE] | 0.0152 µM (active) | 0.0239 µM (active) | 0.0403 µM (active) | 0.164 µM (active) | 0.05 µM (active) | – | 0.0333 µM (active) | < 0.0182 µM (active) | 0.0785 µM (active) | 0.0295 µM (active) | 0.0593 µM (active) | 0.0557 µM (active) | 0.0515 µM (active) | 0.158 µM (active) | 0.23 µM (active) | 1.7 µM (inactive) | 0.0288 µM (active) | – | – | – |
| COc1cc2c(cc1-c1coc3cc(O)ccc3c1=O)OCO2 [CUNEATIN] | – | 39.7 µM (inactive) | > 100 µM (inactive) | 29 µM (inactive) | > 100 µM (inactive) | – | > 100 µM (inactive) | 18.1 µM (inactive) | 19.8 µM (inactive) | 23.4 µM (inactive) | 45.8 µM (inactive) | 37.2 µM (inactive) | 21.5 µM (inactive) | 26 µM (inactive) | 23.6 µM (inactive) | 22.1 µM (inactive) | – | 39.6 µM (inactive) | 22.2 µM (inactive) | 48.9 µM (inactive) |
| COC1OCC(O)C(NC(=O)N(C)N=O)C1O (centres undefined) | > 100 µM (inactive) | > 100 µM (inactive) | – | > 100 µM (inactive) | > 100 µM (inactive) | – | > 100 µM (inactive) | > 100 µM (inactive) | > 100 µM (inactive) | > 100 µM (inactive) | > 100 µM (inactive) | > 100 µM (inactive) | > 100 µM (inactive) | > 100 µM (inactive) | > 100 µM (inactive) | > 100 µM (inactive) | > 100 µM (inactive) | – | – | – |
| COc1nc(NC2OCC(OC(C)=O)C(OC(C)=O)C2OC(C)=O)c(/N=C(\C)C(C)=O)c(=O)n1C (centres undefined) | > 100 µM (inactive) | – | > 100 µM (inactive) | > 100 µM (inactive) | > 100 µM (inactive) | – | > 100 µM (inactive) | > 100 µM (inactive) | > 100 µM (inactive) | > 100 µM (inactive) | > 100 µM (inactive) | > 100 µM (inactive) | > 100 µM (inactive) | > 100 µM (inactive) | – | > 100 µM (inactive) | > 100 µM (inactive) | – | – | – |
| O=C1CNCCCN2CCN(CCCNCC(=O)Nc3ccc(cc3)S(=O)(=O)c3ccc(cc3)NC(=O)CNCCCN3CCN(CCCNCC(=O)Nc4ccc(cc4)S(=O)(=O)c4ccc(cc4)N1)CC3)CC2 | – | 21.2 µM (inactive) | 0.433 µM (active) | 28.1 µM (inactive) | 22.3 µM (inactive) | – | 19.4 µM (inactive) | 10.4 µM (inactive) | > 47.9 µM (inactive) | 19.5 µM (inactive) | 22.3 µM (inactive) | 25.1 µM (inactive) | 24.5 µM (inactive) | 17 µM (inactive) | 32.9 µM (inactive) | 61 µM (inactive) | – | 41.4 µM (inactive) | > 45.4 µM (inactive) | 19.3 µM (inactive) |
| OCCN(CCO)c1ccc2c(c1)Cc1ccccc1-2 | – | 64.3 µM (inactive) | 41.7 µM (inactive) | 21.9 µM (inactive) | 34 µM (inactive) | – | 45.8 µM (inactive) | 19.7 µM (inactive) | 57.1 µM (inactive) | 42.9 µM (inactive) | 64.3 µM (inactive) | 35.7 µM (inactive) | 49.3 µM (inactive) | 31 µM (inactive) | 37.3 µM (inactive) | 31.9 µM (inactive) | – | 17.7 µM (inactive) | 37.1 µM (inactive) | 50.6 µM (inactive) |
| O=[N+]([O-])c1cc([As](Br)c2ccc(O)c([N+](=O)[O-])c2)ccc1O | – | 1.02 µM (active) | 1.17 µM (inactive) | 1.38 µM (inactive) | 0.462 µM (active) | – | 0.259 µM (active) | 3.12 µM (inactive) | 1.66 µM (inactive) | 1.77 µM (inactive) | 1.63 µM (inactive) | 1.49 µM (inactive) | 1.82 µM (inactive) | 1.69 µM (inactive) | 1.47 µM (inactive) | 1.61 µM (inactive) | – | 2 µM (inactive) | 2.41 µM (inactive) | 1.53 µM (inactive) |
| CCN(CC)CCNc1ccc2ncn3c4ccccc4c(=O)c1c23 | 5.07 µM (inactive) | – | 5.74 µM (inactive) | 2.28 µM (inactive) | 8.49 µM (inactive) | 3.77 µM (inactive) | 2 µM (inactive) | 2.26 µM (inactive) | 2.96 µM (inactive) | 5.86 µM (inactive) | 4.12 µM (inactive) | 3.52 µM (inactive) | 4.52 µM (inactive) | 4.23 µM (inactive) | 3.91 µM (inactive) | 2.08 µM (inactive) | – | – | – | – |
| O=C(N/C(=C\c1ccccc1Cl)c1nc2ccccc2[nH]1)c1ccccc1 | 35 µM (inactive) | 29.4 µM (inactive) | 25.7 µM (inactive) | 10.3 µM (inactive) | 24.5 µM (inactive) | 21.9 µM (inactive) | 20.6 µM (inactive) | – | 29 µM (inactive) | 32.7 µM (inactive) | 40.9 µM (inactive) | 17.4 µM (inactive) | 27 µM (inactive) | – | 21.4 µM (inactive) | 11.2 µM (inactive) | – | – | – | – |
| CCOC(=O)Cn1c(=O)c2cc(-c3ccccc3)cc3c(Cl)nc4c(OC)c(OC)cc1c4c32 | – | 16.7 µM (inactive) | 4.89 µM (inactive) | 10.7 µM (inactive) | 13.8 µM (inactive) | – | 3.1 µM (inactive) | 17.1 µM (inactive) | 21.6 µM (inactive) | 87.5 µM (inactive) | 21 µM (inactive) | 24.7 µM (inactive) | 31.2 µM (inactive) | 18.6 µM (inactive) | 14.8 µM (inactive) | 2.07 µM (inactive) | – | 21.4 µM (inactive) | 6.97 µM (inactive) | 17.7 µM (inactive) |
| COC1CCC2C(NS(=O)(=O)c3ccc(C)cc3)CCCC2O1.Cc1ccc(S(=O)(=O)NC(C)(C)C=O)cc1 (centres undefined) | 9.31 µM (inactive) | 33.5 µM (inactive) | 8.18 µM (inactive) | 3.66 µM (inactive) | 9.68 µM (inactive) | – | 8.3 µM (inactive) | 11.6 µM (inactive) | 12.6 µM (inactive) | 20 µM (inactive) | 30 µM (inactive) | 7.76 µM (inactive) | > 34.5 µM (inactive) | 3.29 µM (inactive) | 33 µM (inactive) | 15 µM (inactive) | 8.41 µM (inactive) | – | – | – |
| CN1Nc2ccccc2CC1=O | > 100 µM (inactive) | > 100 µM (inactive) | – | > 100 µM (inactive) | > 100 µM (inactive) | – | – | > 100 µM (inactive) | > 100 µM (inactive) | > 100 µM (inactive) | > 100 µM (inactive) | > 100 µM (inactive) | > 100 µM (inactive) | > 100 µM (inactive) | > 100 µM (inactive) | > 100 µM (inactive) | > 100 µM (inactive) | – | – | – |
| CCSCCC(N)C(=O)O (centres undefined) | – | > 100 µM (inactive) | > 100 µM (inactive) | > 100 µM (inactive) | > 100 µM (inactive) | – | > 100 µM (inactive) | > 100 µM (inactive) | > 100 µM (inactive) | > 100 µM (inactive) | > 100 µM (inactive) | > 100 µM (inactive) | > 100 µM (inactive) | > 100 µM (inactive) | > 100 µM (inactive) | > 100 µM (inactive) | – | > 100 µM (inactive) | > 100 µM (inactive) | > 100 µM (inactive) |
| COc1cccc(N(CN2CC=CC2=O)C(C)=O)c1 | – | > 100 µM (inactive) | > 100 µM (inactive) | > 100 µM (inactive) | > 100 µM (inactive) | – | > 100 µM (inactive) | > 100 µM (inactive) | > 100 µM (inactive) | > 100 µM (inactive) | > 100 µM (inactive) | > 100 µM (inactive) | > 100 µM (inactive) | > 100 µM (inactive) | > 100 µM (inactive) | > 100 µM (inactive) | – | > 100 µM (inactive) | > 100 µM (inactive) | > 100 µM (inactive) |
| COC(=O)[C@]1(C)C(OC)=CC(=O)C2C1[C@H]1CCC[C@@H]21 (some centres undefined) | > 100 µM (inactive) | > 100 µM (inactive) | > 100 µM (inactive) | > 100 µM (inactive) | > 100 µM (inactive) | > 100 µM (inactive) | > 100 µM (inactive) | > 100 µM (inactive) | – | > 100 µM (inactive) | > 100 µM (inactive) | > 100 µM (inactive) | > 100 µM (inactive) | > 100 µM (inactive) | > 100 µM (inactive) | > 100 µM (inactive) | – | – | – | – |
| CN1C(=O)CC2(C)c3cc(C=O)ccc3N(C)C12 (centres undefined) | > 100 µM (inactive) | > 100 µM (inactive) | – | > 100 µM (inactive) | > 100 µM (inactive) | > 100 µM (inactive) | > 100 µM (inactive) | > 100 µM (inactive) | > 100 µM (inactive) | > 100 µM (inactive) | > 100 µM (inactive) | > 100 µM (inactive) | > 100 µM (inactive) | > 100 µM (inactive) | > 100 µM (inactive) | > 100 µM (inactive) | – | – | – | – |
